Source: patent publication US6479287B1, “Method for transformation of cotton and organogenic regeneration” (Mississippi State University, priority 2000, dated 2002)

Tested on: cotton shoot initiation (cultivar Deltapine 50 hypocotyl explants)
Test: Dose response study: effect of aminoglycosides on cotton shoot initiation from hypocotyl explants on medium GA
Format: in vivo
Settings: incorporated in medium GA, results after 1 month, kanamycin tested at 0-200 mg/l, geneticin at 0-20 mg/l
From the text: Hypocotyl sections were placed horizontally on shoot initiation medium (GA). Explants were maintained for 6 weeks on this medium. Shoot primordia were visible on the acropetal ends of hypocotyl sections after 2 weeks. After 6 weeks, leaves were clearly visible. Shoot initiation has been observed in 7 commercial cultivars (Deltapine 50, Stoneville 474, Deltapine 5111, Tx 121, Suregrow 125, Fibermax 819, and Paymaster 1215) and 3 breeding lines, and the response ranged from 20-73% (percentage explants capable of initiating shoots per cultivar).
GA: semi-solid GMS plus an auxin like NAA (0.1-3.0 mg/l), a cytokinin like TDZ, or BA plus kinetin (0.1-2.5 mg/l) and 1-50 mg/l silver nitrate
The effect of the aminoglycosides kanamycin and geneticin on cotton shoot initiation were investigated. Kanamycin, at concentrations of 0.0, 50, 100, 150 and 200 mg/I, and geneticin at 0.0, 5.0, 10, 15 and 20 mg/l, were incorporated in medium GA. The experiment consisted of 3 replicate plates/treatment and 4 explants/replicate plates using the cultivar Deltapine 50. […] A geneticin concentration up to 20 mg/l was not inhibitory to shoot initiation.

Row | Compound | concentration inhibitory to shoot initiation [mg/L]
1 | CN[C@@H]1[C@@H](O)[C@@H](O[C@@H]2[C@@H](O)[C@H](O[C@H]3O[C@H]([C@@H](C)O)[C@@H](O)[C@H](O)[C@H]3N)[C@@H](N)C[C@H]2N)OC[C@]1(C)O [geneticin] | > 20
2 | NC[C@H]1O[C@H](O[C@H]2[C@H](O)[C@@H](O[C@H]3O[C@H](CO)[C@@H](O)[C@H](N)[C@H]3O)[C@H](N)C[C@@H]2N)[C@H](O)[C@@H](O)[C@@H]1O [kanamycin] | 50
